According to patent US5976523A, “Method for healing compromised tissues using pyrimidine derivatives” (Mitsui Pharmaceuticals, Inc., priority 1995, dated 1999):
Counter-ions that a name gives are not always drawn.

Assays:
[1] = tested on: TMK1 cells; assay: TMK1 cell migration in Boyden's chamber; format: cell-based; details: 4 hours
Experimental: TMK1 cells, low-differentiating epithelial cells, were treated with trypsin. […] The culture medium in the lower well was then subjected to fixing and staining, and cells which had migrated therein were counted. Experiments were conducted concurrently in three chambers.
Each value will be presented as a mean ±S.D. and with respect to each compound, numbers of cells will be presented in the order of a) control, b) each pyrimidine compound (whose concentration will be specifically indicated), c) 10 ng/ml of EGF, and d) a mixed solution of each pyrimidine compound + EGF.

[2] = tested on: primary cultured gastric mucosal cells; assay: Wound repair model with primary cultured gastric mucosal cells; format: cell-based, rabbit; details: for area of the wounded region (mean±S.D.): EGF alone 10 ng/ml
Experimental: Primary cultured gastric mucosal cells were prepared by mechanically peeling and mincing the gastric mucosa of a rabbit having a body weight of 2 kg and then digesting the minced gastric mucosa with 0.07% collagenase. The primary cultured gastric mucosal cells were cultured at a cell concentration of 3.3×10^5 cells/ml in F-12 culture medium containing 10% fetal calf serum added therein. For this cultivation, a culture dish (60 mm in diameter) coated with collagen type I was used. […] Using an anti-BrdU antibody, the cells in the S phase were stained to identify proliferated cells.
Their effects on the process of restoration were measured under the above-described parameters. […] In each of the control group and the medicament-added groups, the area of the wounded region was measured at the 0th hour, 12th hour, 24th hour, 36th hour and 48th hour. The measurement results will be given in this order.
The control group and the groups added with the medicament at the respective concentrations were each subjected to the experiment with n=5. The results will each be presented as a (mean±S. D.) mm2. A test of significance was conducted relative to the control group. * stands for p<0.05, ** for p<0.01, *** for p<0.001. A further test of significance was conducted relative to a group added with 10 ng/ml of EGF. + stands for p<0.05, and ++ for <0.01.

[3] = tested on: TMK1 cells; assay: Morphological change of TMK1 cells; format: cell-based; details: EGF alone 10 ng/ml, day 1
[4] = tested on: PDGF-A mRNAs; assay: Northern blot analysis of PDGF-A mRNA expression in cultured rat SMCs; format: cell-based; details: vs serum-free medium
Experimental: SMCs were prepared following the method proposed by Ross and Klebanoff in "J. Cell. Biol.", 50, 159 ff, 1971 with partial modifications. A rat thoracic aorta was excised. After the tunica externa was peeled off, the tunica media and the tunica intima were minced into 2-3 mm^2. The minced sections were placed standstill in a 25-cm^2 flask which contained Waymouth's MB 752/1 medium containing 10% FBS and 80 ng/ml of gentamycin (product of Schering-Plough Corp.), followed by incubation at 37° C. for 2 to 3 weeks in the presence of 5% carbon dioxide gas (primary culture). The same volume of a trypsin-EDTA solution was added to the flask. After the sections were treated at 37° C. for 5 minutes to peel off cells, the cells were diluted with 10% FBS-Waymouth's MB 752/1 medium and then subcultured (second generation). Subculture was successively conducted likewise whenever the SMC became confluent. In the following experiments, the cells from the 5th generation to the 12th generation were employed.
After reach in confluence of cells, the cultured SMCs were cultured for 2 days in a serum-free medium to avoid influence of serum. The SMCs were then added with thrombin (1.0 U/ml) or serotonin (5 μM), followed by incubation at 37° C. for 6 hours under which bring about induction of PDGF-A mRNAs at the maximum. To prevent dissociation of ribosomes and mRNAs, cycloheximide (100 μg/ml) was added 5 minutes before cells were collected.
Preparation of a polysome fraction and extraction of RNAs were conducted following the method proposed by Kasper, et al. in "J. Biol. Chem.", 267, 508 ff, 1992 with slight modifications. The cells, which had been collected by the treatment with trypsin, were washed with PBS containing cycloheximide (100 μg/ml). A cell precipitate was then added with 500 μl of a high-salt lysis buffer (20 mM Tris-HCl pH 7.5, 250 mM NaCl, 5 mM MgCl2, 0.1% Noni det P-40, 0.2% DOC) for homogenization. The homogenate was centrifuged under 12,000×g at 4° C. for 10 minutes. The resulting supernatant was added with 67 μl of a heparine mix (7.4 mg/ml heparine, 1.1M NaCl, 15 mM DTT and RNasin). 200 μl of the extract were layered on 5 ml of 0.5-1.25M linear sucrose gradient (which contained 20 mM Tris-HCl pH 7.4, 10 mM NaCl, 3 mM MgCl2), followed by centrifugation under 45,000 rpm for 90 minutes in a "Hitachi RP55ST". While monitoring the absorbance at 260 nm, ten (10) fractions were obtained. To prepare samples for the extraction of RNAs, the fractions were individually added with SDS and proteinase K to give final concentrations of 1% and 0.2 mg/ml, respectively. Subsequent to incubation at 37° C. for 1 hour, each fraction was extracted once with 1/2 volume of phenol, twice with 1/2 volume aliquots of chloroform, and once with the equal volume of chloroform, whereby proteins were removed. The water layer was added with glycogen (20 μg/ml) as a coprecipitant and then with 0.03M of sodium acetate, and RNAs were caused to precipitate with 2 volumes of ethanol.
After RNAs were incubated at 65° C. for 5 minutes in a solution containing 60% of formamide, 5.9% of formaldehyde and the equal volume of MOPS buffer (10 mM MOPS pH 7.0, 4 mM NaOAc, 0.5 mM EDTA), electrophoresis was conducted across 1.2% agarose gels containing the equal volume of MOPS buffer so that RNAs were. isolated. After the gel was washed with 20 volumes of SSC, RNAs were blotted overnight to a Gene Screen Plus membrane by the capillary method. Fixing of the RNAs was conducted by exposing them for 1 minute at a distance of 10 cm from a 15-W sterilamp. Using a "QuickHyb Hybridization Solution" (product of Strategene Ltd.), hybridization was conducted following the instruction manual attached to the solution. Results of autoradiography were quantitated with reference to the NIH Image. […]

[5] = tested on: PDGF-A mRNAs; assay: Polysome distribution (translation) of PDGF-A mRNAs in rat SMCs; format: cell-based
Experimental: SMCs were prepared following the method proposed by Ross and Klebanoff in "J. Cell. […] A rat thoracic aorta was excised. After the tunica externa was peeled off, the tunica media and the tunica intima were minced into 2-3 mm^2. The minced sections were placed standstill in a 25-cm^2 flask which contained Waymouth's MB 752/1 medium containing 10% FBS and 80 ng/ml of gentamycin (product of Schering-Plough Corp.), followed by incubation at 37° C. for 2 to 3 weeks in the presence of 5% carbon dioxide gas (primary culture). The same volume of a trypsin-EDTA solution was added to the flask. After the sections were treated at 37° C. for 5 minutes to peel off cells, the cells were diluted with 10% FBS-Waymouth's MB 752/1 medium and then subcultured (second generation). Subculture was successively conducted likewise whenever the SMC became confluent. In the following experiments, the cells from the 5th generation to the 12th generation were employed. After reach in confluence of cells, the cultured SMCs were cultured for 2 days in a serum-free medium to avoid influence of serum. The SMCs were then added with thrombin (1.0 U/ml) or serotonin (5 μM), followed by incubation at 37° C. for 6 hours under which bring about induction of PDGF-A mRNAs at the maximum. To prevent dissociation of ribosomes and mRNAs, cycloheximide (100 μg/ml) was added 5 minutes before cells were collected. […] Biol. Chem.", 267, 508 ff, 1992 with slight modifications. The cells, which had been collected by the treatment with trypsin, were washed with PBS containing cycloheximide (100 μg/ml). A cell precipitate was then added with 500 μl of a high-salt lysis buffer (20 mM Tris-HCl pH 7.5, 250 mM NaCl, 5 mM MgCl2, 0.1% Noni det P-40, 0.2% DOC) for homogenization. The homogenate was centrifuged under 12,000×g at 4° C. for 10 minutes. The resulting supernatant was added with 67 μl of a heparine mix (7.4 mg/ml heparine, 1.1M NaCl, 15 mM DTT and RNasin). 200 μl of the extract were layered on 5 ml of 0.5-1.25M linear sucrose gradient (which contained 20 mM Tris-HCl pH 7.4, 10 mM NaCl, 3 mM MgCl2), followed by centrifugation under 45,000 rpm for 90 minutes in a "Hitachi […]". While monitoring the absorbance at 260 nm, ten (10) fractions were obtained. […] Subsequent to incubation at 37° C. for 1 hour, each fraction was extracted once with 1/2 volume of phenol, twice with 1/2 volume aliquots of chloroform, and once with the equal volume of chloroform, whereby proteins were removed. The water layer was added with glycogen (20 μg/ml) as a coprecipitant and then with 0.03M of sodium acetate, and RNAs were caused to precipitate with 2 volumes of ethanol. After RNAs were incubated at 65° C. for 5 minutes in a solution containing 60% of formamide, 5.9% of formaldehyde and the equal volume of MOPS buffer (10 mM MOPS pH 7.0, 4 mM NaOAc, 0.5 mM EDTA), electrophoresis was conducted across 1.2% agarose gels containing the equal volume of MOPS buffer so that RNAs were. isolated. After the gel was washed with 20 volumes of SSC, RNAs were blotted overnight to a Gene Screen Plus membrane by the capillary method. Fixing of the RNAs was conducted by exposing them for 1 minute at a distance of 10 cm from […]. Using a "QuickHyb Hybridization Solution" (product of Strategene Ltd.), hybridization was conducted following the instruction manual attached to the solution. Results of autoradiography were quantitated with reference to the NIH Image. […]

CN1C(=O)C(C)(C)c2cnc(N3CCCCC3)nc21 [2-piperidino-5,5,7-trimethyl-6-oxo-5,6-dihydro(7H)pyrro[3,4-d]pyrimidine maleate]
numbers of cells counted (migrated), mean ±S.D. ([1]; compound 0.1 mM + EGF 10 ng/ml): 147.2±13.2 | numbers of cells counted (migrated), mean ±S.D. ([1]; compound alone, 0.1 mM): 33±12.6

CN1C(=O)Cc2cnc(N3CCCCC3)nc21
numbers of cells counted (migrated), mean ±S.D. ([1]; compound 0.1 mM + EGF 10 ng/ml): 20.9±3.9 | numbers of cells counted (migrated), mean ±S.D. ([1]; compound alone, 0.1 mM): 2.9±1.0

EGF: epidermal growth factor
area of the wounded region (mean±S.D.) ([2]; 0th hour): 2.06±0.06 mm2 | area of the wounded region (mean±S.D.) ([2]; 12th hour): 0.91±0.03 mm2 | area of the wounded region (mean±S.D.) ([2]; 24th hour): 0.46±0.15 mm2 | area of the wounded region (mean±S.D.) ([2]; 36th hour): 0.08±0.04 mm2 | area of the wounded region (mean±S.D.) ([2]; 48th hour): 0 mm2 | effect on migration, proliferation and restoration of the cells ([2]; EGF alone 1-10 ng/ml): promoted migration and proliferation of the cells in a concentration-dependent manner and accelerated the speed of restoration | morphological changes [3]: significant morphological changes were observed as early as day 1, presenting scattering

NCCc1c[nH]c2ccc(O)cc12 [serotonin, reference compound]
fold induction at 5 µM ([4]; Rattus norvegicus, 6 h, sole addition of serotonin (5 μM), read-out: expression amount of 1.7 kb PDGF-A mRNAs compared with control): 1.7 | translation state of the three kinds of PDGF-A mRNAs ([5]; serotonin alone): all in translated forms

CCC1CCN(c2ncc3c(n2)N(C)C(=O)C3)CC1 [2-(4-ethylpiperidino)-7-methyl-6-oxo-5,6-dihydro(7H)pyrro[2,3-d]pyrimidinemaleate]
numbers of cells counted (migrated), mean ±S.D. ([1]; compound 0.1 mM + EGF 10 ng/ml): 144±3.1 | numbers of cells counted (migrated), mean ±S.D. ([1]; compound alone, 0.1 mM): 28.6±18.4

thrombin
expression amount of 1.7 kb PDGF-A mRNAs compared with control ([4]; sole addition of thrombin (1.0 U/ml)): 1.5 times | translation state of 1.7 kb, 2.3 kb and 2.9 kb PDGF-A mRNAs ([5]; thrombin alone): both those in a translated form and those in the non-translated form
